# Measurements from article PMC6747015, “Structure–function study of a novel inhibitor of the casein kinase 1 family in Arabidopsis thaliana” (Plant Direct, 2019).
# Key:
# YAK1 (AT5G35980) = molecular target: T1, YAK1 (AT5G35980) (Arabidopsis thaliana, UniProt Q8RWH3); assay: AMI‐329 bead binding with AMI‐331 competitor, YAK1
# T1 construct: Proteins from the frozen plant samples were incubated with 0, 5, or 50 µM of AMI‐331; from tissue; host or cells: two-week-old Arabidopsis seedlings (protein lysate)
# Experimental: (§1) Screening for proteins bound to AMI‐329 beads was done by a method similar to what has previously been described (Uehara et al., 2019). Briefly, two‐week‐old seedlings grown under LD conditions were harvested at time points ZT2, ZT6, ZT9, and ZT17, and stored at −80°C. Proteins from the frozen plant samples were incubated with 0, 5, or 50 µM of AMI‐331 at 4°C for 30 min with rotary mixing. Two technical replicates were used for each experiment. PBS‐washed AMI‐329 beads were added to the protein samples and gently rotated at 4°C for 1 hr. AMI‐329 bead resins were washed with bead buffer (Uehara et al., 2019) six times. The washed resins were suspended in SDS sample buffer and boiled for 8 min. Protein samples were in‐gel‐digested as previously described (Uehara et al., 2019). Peptides were analyzed with a Q Exactive hybrid quadrupole‐orbitrap mass spectrometer (Thermo Fisher Scientific), as described previously (Uehara et al., 2019). […]
# (§2) However, another possible mechanism for the strong AMI‐331 biological activity in vivo is that it targets proteins other than the CK1 family for period lengthening. […] It is noteworthy that kinase AT4G08800 is very similar to the CKL family, but the ATP‐binding pocket of mammalian CK1 as determined by its crystal structure (Shinohara et al., 2017) was absent from AT4G08800, as shown in an Araport 11 model (https://www.araport.org). […]
# Kinase AT4G08800 = assay: AMI‐329 bead binding with AMI‐331 competitor, kinase AT4G08800; parameters: species or system Arabidopsis thaliana
# Experimental: as §1, §2
# NRPB3 (AT2G15430) = molecular target: T2, NRPB3 (AT2G15430) (Arabidopsis thaliana, UniProt Q39211); assay: AMI‐329 bead binding with AMI‐331 competitor, NRPB3
# T2 construct: from tissue; host or cells: Arabidopsis seedlings, two weeks old
# Experimental: as §1, §2
# PRR5 and TOC1 = PRR5 and TOC1 fusion protein accumulation by Western blotting; format: in vivo, Arabidopsis
# Experimental: Four‐day‐old seedlings grown under 12‐hr light/12‐hr dark (LD) conditions were transferred into a 96‐well plate with a dropper. Seedlings were treated with 20 µl of MS liquid containing 2% sucrose and AMI‐331 at 2, 10, or 50 µM with a final concentration of 5% (v/v) DMSO. As a control experiment, MS containing 2% sucrose and 5% DMSO was used to treat the seedlings. Seedlings were kept under constant light (L) or constant dark (D) for 24 hr, harvested, and kept frozen until proteins were extracted. Frozen samples were crushed with zirconia beads (Tomy ZB‐50) in a Tissue Lyser II (Qiagen). Detection of PRR5‐ and TOC1‐fusion proteins was performed using a 10%–20% gradient acrylamide gel (198‐15041, Wako) as previously described (Nakamichi et al., 2012). Anti‐FLAG antibody (F3165, Sigma) and anti‐VP antibody (ab4808, Abcam) were used to detect FLAG‐fusion and VP‐fusion proteins, respectively.
# It had previously been shown that CKL4 phosphorylates PSEUDO‐RESPONSE REGULATOR 5 (PRR5), a clock‐associated transcription factor in vitro, and that treatment with the CK1 inhibitor PHA767491 results in over‐accumulation of PRR5 in vivo (Uehara et al., 2019). As a further test of whether the period‐lengthening activity of AMI‐331 is related to the inhibition of CK1 in vivo, we measured the amounts of PRR5 in plants treated with AMI‐331. Seedlings expressing fusion protein PRR5‐FLAG under control of the cauliflower mosaic virus 35S promoter (35Spro:PRR5‐FLAG) were grown under constant light conditions for 4 days, treated with AMI‐331, and kept constantly in the dark for one day. In control experiments (i.e., without AMI‐331), PRR5‐FLAG protein amounts were lower under dark compared to light conditions, due to ZTL‐dependent degradation, as described in previously (Fujiwara et al., 2008; Kiba, Henriques, Sakakibara, & Chua, 2007). […] Since PHA767491 treatment also attenuates degradation of TIMING OF CAB EXPRESSION 1 (TOC1, also called as PRR1) under dark conditions (Uehara et al., 2019), we tested whether AMI‐331 affects TOC1 protein accumulation in vivo. TOC1 amounts were higher in AMI‐331‐treated plants (Figures 3c, S2).
# Unknown AT5G42765 = assay: AMI‐329 bead binding with AMI‐331 competitor, unknown protein AT5G42765; parameters: species or system Arabidopsis thaliana
# Experimental: as §1, §2
# T1 sequence (Q8RWH3 whole entry): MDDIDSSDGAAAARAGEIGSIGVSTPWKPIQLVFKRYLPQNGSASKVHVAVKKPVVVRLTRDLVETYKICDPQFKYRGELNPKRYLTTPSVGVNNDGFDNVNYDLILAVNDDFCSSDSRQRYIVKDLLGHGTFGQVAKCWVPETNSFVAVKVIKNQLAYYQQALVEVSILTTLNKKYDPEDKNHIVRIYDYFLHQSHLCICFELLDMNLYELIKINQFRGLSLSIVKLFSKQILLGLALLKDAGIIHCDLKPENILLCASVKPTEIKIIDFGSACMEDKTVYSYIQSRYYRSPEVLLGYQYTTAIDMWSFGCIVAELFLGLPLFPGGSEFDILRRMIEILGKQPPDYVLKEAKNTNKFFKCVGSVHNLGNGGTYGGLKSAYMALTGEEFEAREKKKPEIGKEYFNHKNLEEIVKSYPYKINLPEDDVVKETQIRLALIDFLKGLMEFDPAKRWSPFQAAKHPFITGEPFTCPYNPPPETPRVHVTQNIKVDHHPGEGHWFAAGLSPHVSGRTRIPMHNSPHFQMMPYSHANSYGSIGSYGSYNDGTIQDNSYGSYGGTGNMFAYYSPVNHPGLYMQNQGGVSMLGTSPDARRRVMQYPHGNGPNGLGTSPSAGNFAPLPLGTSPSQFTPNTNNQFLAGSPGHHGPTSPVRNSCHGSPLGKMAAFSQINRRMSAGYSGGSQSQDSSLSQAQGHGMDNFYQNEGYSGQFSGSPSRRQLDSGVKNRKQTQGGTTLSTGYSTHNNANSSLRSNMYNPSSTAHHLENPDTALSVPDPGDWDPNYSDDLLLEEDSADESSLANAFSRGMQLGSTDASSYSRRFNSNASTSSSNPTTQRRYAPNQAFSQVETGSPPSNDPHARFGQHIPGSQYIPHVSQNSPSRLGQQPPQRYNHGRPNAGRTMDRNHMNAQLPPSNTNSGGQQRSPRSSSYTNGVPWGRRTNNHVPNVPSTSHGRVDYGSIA
# T2 sequence (Q39211 whole entry): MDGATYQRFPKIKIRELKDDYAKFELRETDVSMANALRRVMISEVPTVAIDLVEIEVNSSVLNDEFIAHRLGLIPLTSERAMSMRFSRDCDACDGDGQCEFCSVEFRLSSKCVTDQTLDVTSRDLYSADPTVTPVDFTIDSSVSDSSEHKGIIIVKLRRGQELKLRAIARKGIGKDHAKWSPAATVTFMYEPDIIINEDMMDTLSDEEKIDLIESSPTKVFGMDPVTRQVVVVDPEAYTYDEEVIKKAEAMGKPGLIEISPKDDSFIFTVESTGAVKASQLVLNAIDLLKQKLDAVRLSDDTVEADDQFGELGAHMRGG
compound,measurement,setting,value
C#CCn1c2c(c(Br)c1-c1ccncc1)C(=O)NCC2.Cl [AMI‐331],Spectra (PSMs) AMI‐329 beads bound,YAK1 (AT5G35980); competitor AMI‐331 5 µM,0 PSMs
same,Spectra (PSMs) AMI‐329 beads bound,YAK1 (AT5G35980); competitor AMI‐331 50 µM,0 PSMs
same,Spectra (PSMs) AMI‐329 beads bound,Kinase AT4G08800; competitor AMI‐331 5 µM,0 PSMs
same,Spectra (PSMs) AMI‐329 beads bound,Kinase AT4G08800; competitor AMI‐331 50 µM,0 PSMs
same,Spectra (PSMs) AMI‐329 beads bound,NRPB3 (AT2G15430); competitor AMI‐331 5 µM,0 PSMs
same,Spectra (PSMs) AMI‐329 beads bound,NRPB3 (AT2G15430); competitor AMI‐331 50 µM,0 PSMs
same,PRR5‐FLAG protein amount,"PRR5 and TOC1; 35Spro:PRR5‐FLAG seedlings, dark conditions",over‐accumulation of PRR5‐FLAG
same,PRR5‐VP protein amount,"PRR5 and TOC1; 35Spro:PRR5‐VP seedlings, dose‐dependent",accumulation of PRR5‐VP
same,TOC1 protein amount,PRR5 and TOC1; 35Spro:TOC1‐VP seedlings,higher
same,"Effective concentration for increasing PRR5 and TOC1, times lower than required for PHA767491",PRR5 and TOC1; in vivo,10–50 times
same,Effective concentrations for PRR5 or TOC1 accumulation,"PRR5 and TOC1; seedlings, 24 hr in the dark",10 to 50 µM
same,Spectra (PSMs) AMI‐329 beads bound,Unknown AT5G42765; competitor AMI‐331 5 µM,0 PSMs
same,Spectra (PSMs) AMI‐329 beads bound,Unknown AT5G42765; competitor AMI‐331 50 µM,0 PSMs
